Test results published in ChEMBL document CHEMBL5038589, “Design, Synthesis, and Structure-Activity Relationship of N-Aryl-N'-(thiophen-2-yl)thiourea Derivatives as Novel and Specific Human TLR1/2 Agonists for Potential Cancer Immunotherapy” (J Med Chem, 2021).
Calls of active or inactive are those of the source. The rule behind the calls is not given here.

Assays:
THP-1 [1] = test: Upregulation of MyD88 expression in human PMA-differentiated THP-1 cells assessed as induction of IKKbeta phosphorylation at 10 uM incubated for 2 hrs by Western blot analysis; assay type: functional, cell-based
HCT-116 = test: Induction of apoptosis in human HCT-116 cells cocultured with PMA-differentiated THP-1 cells assessed as increase in annexin-V positive cells at 10 uM measured after 24 hrs by annexin V-FITC/PI staining based flow cytometry (reference value: 16.23%); assay type: functional
[2] = target: Toll-like receptor 6 (Homo sapiens) (UniProt Q9Y2C9); test: Agonist activity at TLR6 in HEK-Blue hTLR2 cells at 0.2 uM incubated for 24 hrs in presence of anti-hTLR6-IgA antibodies measured by Quanti-Blue based SEAP assay; assay type: cell-based
Chain of Toll-like receptor 6 (Homo sapiens) (Q9Y2C9 whole entry): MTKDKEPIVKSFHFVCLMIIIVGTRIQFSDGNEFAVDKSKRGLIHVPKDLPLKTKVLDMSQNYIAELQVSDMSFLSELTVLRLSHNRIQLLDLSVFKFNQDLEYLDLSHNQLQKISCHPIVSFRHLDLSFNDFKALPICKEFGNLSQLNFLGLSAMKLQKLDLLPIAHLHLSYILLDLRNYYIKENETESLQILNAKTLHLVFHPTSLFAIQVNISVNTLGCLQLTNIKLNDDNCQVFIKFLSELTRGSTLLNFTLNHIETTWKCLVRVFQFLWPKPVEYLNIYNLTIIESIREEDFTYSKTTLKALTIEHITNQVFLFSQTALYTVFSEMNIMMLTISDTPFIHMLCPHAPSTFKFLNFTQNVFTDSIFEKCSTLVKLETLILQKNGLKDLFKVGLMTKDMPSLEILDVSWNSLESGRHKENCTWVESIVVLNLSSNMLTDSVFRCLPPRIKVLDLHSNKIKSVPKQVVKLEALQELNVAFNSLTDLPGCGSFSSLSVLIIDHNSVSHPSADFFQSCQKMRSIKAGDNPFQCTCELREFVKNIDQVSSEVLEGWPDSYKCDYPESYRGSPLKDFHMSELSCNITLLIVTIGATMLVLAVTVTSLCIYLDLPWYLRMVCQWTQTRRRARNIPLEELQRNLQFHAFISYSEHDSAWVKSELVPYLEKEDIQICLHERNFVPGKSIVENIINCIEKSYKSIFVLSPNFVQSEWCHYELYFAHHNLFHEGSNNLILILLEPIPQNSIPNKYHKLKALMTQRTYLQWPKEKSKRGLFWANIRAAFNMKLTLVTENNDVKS

THP-1 [3] = test: Induction of JNK phosphorylation in human PMA-differentiated THP-1 cells at 10 uM incubated for 2 hrs by Western blot analysis; assay type: functional, cell-based
THP-1 [4] = test: Upregulation of MyD88 expression in human PMA-differentiated THP-1 cells assessed as induction of IKKalpha phosphorylation at 10 uM incubated for 2 hrs by Western blot analysis; assay type: functional, cell-based
[5] = Cytotoxicity against human PBMC upto 100 uM incubated for 24 hrs by CCK-8 assay; assay type: toxicity, cell-based
Macrophage [6] = test: Induction of TNFalpha secretion in TLR2-/- C57BL/6 mouse peritoneal macrophages at 0.01 to 10 uM incubated for 24 hrs by ELISA method; assay type: functional, cell-based; conditions: dose 0.01-10 µM
[7] = target: Toll-like receptor 1 (Homo sapiens) (UniProt Q15399); test: Agonist activity at TLR1 in HEK-Blue hTLR2 cells at 0.2 uM incubated for 24 hrs in presence of anti-hTLR1-IgG antibodies measured by Quanti-Blue based SEAP assay; assay type: cell-based; conditions: filed as agonist
Chain of Toll-like receptor 1 (Homo sapiens) (Q15399 whole entry): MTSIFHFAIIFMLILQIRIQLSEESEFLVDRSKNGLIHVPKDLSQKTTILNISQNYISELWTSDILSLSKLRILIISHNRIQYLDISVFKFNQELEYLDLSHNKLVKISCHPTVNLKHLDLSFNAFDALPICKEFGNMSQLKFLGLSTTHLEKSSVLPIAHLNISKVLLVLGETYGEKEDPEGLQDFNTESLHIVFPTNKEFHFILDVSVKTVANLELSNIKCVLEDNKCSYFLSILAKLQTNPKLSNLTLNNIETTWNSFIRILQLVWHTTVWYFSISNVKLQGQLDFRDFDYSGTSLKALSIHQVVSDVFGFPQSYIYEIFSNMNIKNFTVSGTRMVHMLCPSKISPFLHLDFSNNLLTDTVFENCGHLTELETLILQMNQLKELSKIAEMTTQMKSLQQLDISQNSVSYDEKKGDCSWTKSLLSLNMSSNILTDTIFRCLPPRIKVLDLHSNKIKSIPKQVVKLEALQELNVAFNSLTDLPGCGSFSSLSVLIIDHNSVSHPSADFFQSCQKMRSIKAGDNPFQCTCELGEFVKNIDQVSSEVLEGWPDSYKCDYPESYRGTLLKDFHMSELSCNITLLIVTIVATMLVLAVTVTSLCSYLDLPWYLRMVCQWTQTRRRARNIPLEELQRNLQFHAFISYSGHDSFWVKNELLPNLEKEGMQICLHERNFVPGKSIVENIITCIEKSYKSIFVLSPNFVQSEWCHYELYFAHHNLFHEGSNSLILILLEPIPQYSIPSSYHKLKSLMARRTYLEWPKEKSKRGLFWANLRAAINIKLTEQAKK

[8] = Immunostimulatory activity in human CD8+ T cells assessed as fold increase at 0.1 to 10 uM incubated for 48 hrs by flow cytometry analysis; assay type: functional, CD8-positive T cell; conditions: dose 0.1-10 µM
Toll-like receptor 2 [9] = target: T1, Toll-like receptor 2 (Homo sapiens, UniProt O60603); test: Agonist activity at TLR2 in HEK-Blue hTLR2 cells at 0.2 uM incubated for 24 hrs in presence of anti-hTLR2-IgA antibodies measured by Quanti-Blue based SEAP assay; assay type: cell-based; conditions: filed as agonist
T1 sequence (O60603 whole entry): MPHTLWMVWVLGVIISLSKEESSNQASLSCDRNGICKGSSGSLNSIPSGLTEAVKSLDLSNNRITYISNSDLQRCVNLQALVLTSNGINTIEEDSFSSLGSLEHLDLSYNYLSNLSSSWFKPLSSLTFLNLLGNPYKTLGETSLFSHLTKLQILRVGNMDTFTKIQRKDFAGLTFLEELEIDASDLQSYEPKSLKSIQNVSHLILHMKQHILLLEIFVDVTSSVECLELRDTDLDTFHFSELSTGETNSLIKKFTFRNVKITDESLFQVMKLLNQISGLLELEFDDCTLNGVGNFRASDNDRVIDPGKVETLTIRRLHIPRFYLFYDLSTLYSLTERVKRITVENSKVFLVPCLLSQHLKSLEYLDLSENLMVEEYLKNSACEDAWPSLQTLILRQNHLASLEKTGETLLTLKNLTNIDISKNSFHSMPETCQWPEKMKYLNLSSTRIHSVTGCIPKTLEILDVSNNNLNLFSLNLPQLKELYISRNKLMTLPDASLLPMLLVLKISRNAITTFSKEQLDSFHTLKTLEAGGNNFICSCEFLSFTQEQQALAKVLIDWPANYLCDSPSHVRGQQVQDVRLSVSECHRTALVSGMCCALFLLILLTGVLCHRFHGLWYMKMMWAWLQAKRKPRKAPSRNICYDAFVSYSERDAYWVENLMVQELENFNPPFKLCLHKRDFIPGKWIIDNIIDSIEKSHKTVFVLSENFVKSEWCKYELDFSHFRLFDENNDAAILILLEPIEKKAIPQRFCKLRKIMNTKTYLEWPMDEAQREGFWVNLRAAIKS

Toll-like receptor 2 [10] = target: T1, Toll-like receptor 2; test: Agonist activity at TLR2 in HEK-Blue cells assessed as fold increase in activity 0.0015 to 10 uM incubated for 24 hrs by Quanti-Blue based SEAP assay; assay type: cell-based; conditions: HEK-Blue hTLR2, dose 0.0015-10 µM
THP-1 [11] = test: Upregulation of TLR2 expression in human THP-1 cells at 20 uM by immunoprecipitation method; assay type: functional, cell-based
THP-1 [12] = test: Upregulation of TLR2 expression in human THP-1 cells at 0.01 to 50 uM incubated for 24 hrs by Western blot analysis; assay type: functional, cell-based; conditions: dose 0.01-50 µM
THP-1 [13] = test: Induction of ERK phosphorylation in human PMA-differentiated THP-1 cells at 10 uM incubated for 2 hrs by Western blot analysis; assay type: functional, cell-based
[14] = target: Toll-like receptor 4 (Homo sapiens) (UniProt O00206); test: Agonist activity at TLR4 in HEK-Blue hTLR4 cells at 0.1 to 100 uM incubated for 24 hrs by Quanti-Blue based SEAP assay; assay type: cell-based; conditions: dose 0.1-100 µM
Chain of Toll-like receptor 4 (Homo sapiens) (O00206 whole entry): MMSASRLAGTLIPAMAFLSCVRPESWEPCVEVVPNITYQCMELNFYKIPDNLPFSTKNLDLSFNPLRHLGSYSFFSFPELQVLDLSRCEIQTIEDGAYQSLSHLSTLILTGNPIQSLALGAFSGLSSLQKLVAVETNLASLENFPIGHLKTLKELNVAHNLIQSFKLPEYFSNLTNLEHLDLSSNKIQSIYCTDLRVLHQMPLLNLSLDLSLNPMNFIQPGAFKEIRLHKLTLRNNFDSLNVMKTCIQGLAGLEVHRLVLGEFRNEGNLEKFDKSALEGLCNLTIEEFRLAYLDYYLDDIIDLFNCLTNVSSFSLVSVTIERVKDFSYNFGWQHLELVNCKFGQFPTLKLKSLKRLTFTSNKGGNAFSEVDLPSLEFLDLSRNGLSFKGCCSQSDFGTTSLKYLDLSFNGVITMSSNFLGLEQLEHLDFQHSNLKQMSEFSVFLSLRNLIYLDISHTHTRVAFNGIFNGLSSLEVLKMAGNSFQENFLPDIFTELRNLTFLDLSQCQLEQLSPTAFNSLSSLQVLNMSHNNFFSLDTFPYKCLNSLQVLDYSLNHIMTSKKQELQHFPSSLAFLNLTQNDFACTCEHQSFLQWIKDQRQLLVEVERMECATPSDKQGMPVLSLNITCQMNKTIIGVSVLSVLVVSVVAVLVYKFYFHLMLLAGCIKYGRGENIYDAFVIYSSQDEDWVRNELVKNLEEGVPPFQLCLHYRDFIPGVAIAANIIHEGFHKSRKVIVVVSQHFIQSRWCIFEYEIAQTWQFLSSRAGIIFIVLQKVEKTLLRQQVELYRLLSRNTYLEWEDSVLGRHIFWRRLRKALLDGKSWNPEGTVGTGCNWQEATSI

CD4+ve Th = test: Immunostimulatory activity in human CD4+ T cells at 0.1 to 10 uM incubated for 48 hrs by flow cytometry analysis; assay type: functional, cell-based; conditions: dose 0.1-10 µM
Toll-like receptor 2 [15] = target: T1, Toll-like receptor 2; test: Binding affinity to recombinant human TLR2 expressed in H5 cells by surface plasmon resonance method
HEK-Blue hTLR2 = test: Upregulation of TLR2 expression in HEK-Blue TLR2 cells incubated for 24 hrs by Western blot analysis; assay type: functional, cell-based; conditions: Homo sapiens, dose 0.01-50 µM
[16] = target: Toll-like receptor 8 (Homo sapiens) (UniProt Q9NR97); test: Agonist activity at TLR8 in HEK-Blue hTLR8 cells at 0.1 to 100 uM incubated for 24 hrs by Quanti-Blue based SEAP assay; assay type: cell-based; conditions: dose 0.1-100 µM
Chain of Toll-like receptor 8 (Homo sapiens) (Q9NR97 whole entry): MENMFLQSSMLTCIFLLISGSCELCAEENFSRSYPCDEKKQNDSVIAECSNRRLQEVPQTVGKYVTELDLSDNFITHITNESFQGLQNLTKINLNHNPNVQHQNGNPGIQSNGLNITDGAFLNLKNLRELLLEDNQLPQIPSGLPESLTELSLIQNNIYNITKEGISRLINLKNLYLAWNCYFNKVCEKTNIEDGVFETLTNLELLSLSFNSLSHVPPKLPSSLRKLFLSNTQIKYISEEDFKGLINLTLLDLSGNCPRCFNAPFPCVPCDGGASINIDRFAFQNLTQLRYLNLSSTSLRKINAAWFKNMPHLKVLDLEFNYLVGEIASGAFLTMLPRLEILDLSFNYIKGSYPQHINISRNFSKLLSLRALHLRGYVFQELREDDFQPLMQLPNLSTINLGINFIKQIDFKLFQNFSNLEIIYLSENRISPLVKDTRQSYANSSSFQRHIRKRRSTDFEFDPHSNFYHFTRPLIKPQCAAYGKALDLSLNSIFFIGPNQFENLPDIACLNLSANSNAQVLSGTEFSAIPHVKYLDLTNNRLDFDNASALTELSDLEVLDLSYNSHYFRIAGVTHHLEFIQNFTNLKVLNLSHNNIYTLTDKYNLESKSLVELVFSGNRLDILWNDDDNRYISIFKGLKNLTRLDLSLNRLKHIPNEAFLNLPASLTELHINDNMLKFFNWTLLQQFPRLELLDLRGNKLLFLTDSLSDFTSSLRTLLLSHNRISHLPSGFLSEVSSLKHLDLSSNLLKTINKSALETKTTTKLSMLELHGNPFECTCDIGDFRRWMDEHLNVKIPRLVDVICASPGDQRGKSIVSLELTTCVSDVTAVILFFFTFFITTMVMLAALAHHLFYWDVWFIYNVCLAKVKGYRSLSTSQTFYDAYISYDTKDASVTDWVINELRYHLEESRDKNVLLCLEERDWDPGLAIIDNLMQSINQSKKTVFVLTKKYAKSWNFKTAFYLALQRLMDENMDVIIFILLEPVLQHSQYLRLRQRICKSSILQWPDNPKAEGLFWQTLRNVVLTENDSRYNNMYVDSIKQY

THP-1 [17] = test: Upregulation of MyD88 expression in human PMA-differentiated THP-1 cells in presence of T6167923 at 10 uM incubated for 2 hrs by western blot analysis; assay type: functional, cell-based
[18] = target: Toll-like receptor 3 (Homo sapiens) (UniProt O15455); test: Agonist activity at TLR3 in HEK-Blue hTLR3 cells at 0.1 to 100 uM incubated for 24 hrs by Quanti-Blue based SEAP assay; assay type: cell-based; conditions: dose 0.1-100 µM
CD3-positive T cell = test: Immunostimulatory activity in human CD3+ T cells at 0.1 to 10 uM incubated for 48 hrs by flow cytometry analysis; assay type: functional, cell-based; conditions: dose 0.1-10 µM
THP-1 [19] = test: Upregulation of TLR1 expression in human THP-1 cells at 20 uM by immunoprecipitation method; assay type: functional, cell-based
THP-1 [20] = test: Upregulation of MyD88 expression in human PMA-differentiated THP-1 cells assessed as induction of p38 phosphorylation at 10 uM incubated for 2 hrs by Western blot analysis; assay type: functional, cell-based
[21] = target: Toll-like receptor 1/2 (Homo sapiens) (UniProt O60603+Q15399); test: Agonist activity at TLR1/TLR2 in human THP-1 cells assessed as induction of TLR1/TLR2 dimerization at 20 uM incubated for 12 hrs by coimmunoprecipitation method; assay type: cell-based; conditions: filed as agonist
MCF7 = test: Induction of apoptosis in human MCF7 cells upto 100 uM by microplate reader analysis; assay type: functional, cell-based; conditions: dose microM <=100
THP-1 [22] = test: Agonist activity at TLR2/MyD88 in human THP-1 cells assessed as induction of TLR2/MyD88 complex formation at 20 uM incubated for 12 hrs by coimmunoprecipitation method; assay type: cell-based; conditions: filed as agonist
THP-1 [23] = test: Upregulation of MyD88 expression in human PMA-differentiated THP-1 cells in presence of T6167923 at 10 uM after 30 mins by western blot analysis; assay type: functional, cell-based
RAW264.7 = test: Induction of nitric oxide release in mouse RAW264.7 cells at 0.01 to 10 uM incubated for 24 hrs by Griess reagent based assay; assay type: functional, cell-based; conditions: dose 0.01-10 µM
PBMC = test: Induction of IL-1beta secretion in human PBMC incubated for 24 hrs by ELISA method; assay type: functional, cell-based; conditions: dose 0.01-10 µM
[24] = Selectivity index, ratio of CC50 for HEK-Blue TLR2 cells to EC50 for agonist activity at TLR2 in HEK-Blue TLR2 cells; assay type: functional
[25] = target: Toll-like receptor 5 (Homo sapiens) (UniProt O60602); test: Agonist activity at TLR5 in HEK-Blue hTLR5 cells at 0.1 to 100 uM incubated for 24 hrs by Quanti-Blue based SEAP assay; assay type: cell-based; conditions: dose 0.1-100 µM
Chain of Toll-like receptor 5 (Homo sapiens) (O60602 whole entry): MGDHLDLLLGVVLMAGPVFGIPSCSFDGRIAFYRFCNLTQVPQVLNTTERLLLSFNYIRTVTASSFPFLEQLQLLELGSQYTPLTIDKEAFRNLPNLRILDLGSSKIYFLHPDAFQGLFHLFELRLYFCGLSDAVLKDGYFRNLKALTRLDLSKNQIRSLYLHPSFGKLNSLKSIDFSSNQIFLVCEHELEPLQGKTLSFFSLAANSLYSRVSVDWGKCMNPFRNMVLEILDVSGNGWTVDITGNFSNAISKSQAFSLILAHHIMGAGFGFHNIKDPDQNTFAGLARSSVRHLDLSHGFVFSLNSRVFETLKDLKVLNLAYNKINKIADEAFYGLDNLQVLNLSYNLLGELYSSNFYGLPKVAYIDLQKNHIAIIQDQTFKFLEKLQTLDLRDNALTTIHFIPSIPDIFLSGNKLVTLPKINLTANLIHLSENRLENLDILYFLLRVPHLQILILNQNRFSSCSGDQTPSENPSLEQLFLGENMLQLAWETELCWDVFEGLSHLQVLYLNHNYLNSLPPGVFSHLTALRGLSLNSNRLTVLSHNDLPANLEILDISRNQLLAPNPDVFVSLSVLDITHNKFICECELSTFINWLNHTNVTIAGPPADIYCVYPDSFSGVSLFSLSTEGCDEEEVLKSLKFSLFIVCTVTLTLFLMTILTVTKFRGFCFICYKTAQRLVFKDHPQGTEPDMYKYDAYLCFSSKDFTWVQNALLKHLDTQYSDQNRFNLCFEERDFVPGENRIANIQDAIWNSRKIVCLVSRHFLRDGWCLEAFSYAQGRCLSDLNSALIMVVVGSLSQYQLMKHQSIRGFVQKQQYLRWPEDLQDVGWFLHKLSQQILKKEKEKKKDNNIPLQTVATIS

[26] = Cytotoxicity against HEK-Blue TLR2 cells upto 100 uM incubated for 24 hrs by CCK-8 assay; assay type: toxicity, cell-based; conditions: human, hek-blue htlr2, 24 h
Toll-like receptor 2 [27] = target: T1, Toll-like receptor 2; test: Agonist activity at TLR2 in HEK-Blue cells incubated for 24 hrs by Quanti-Blue based SEAP assay; assay type: cell-based; conditions: HEK-Blue hTLR2, filed as agonist
Macrophage [28] = test: Induction of IL-6 secretion in TLR2-/- C57BL/6 mouse peritoneal macrophages at 0.01 to 10 uM incubated for 24 hrs by ELISA method; assay type: functional, cell-based; conditions: dose 0.01-10 µM
THP-1 [29] = test: Upregulation of TLR6 expression in human THP-1 cells at 20 uM by immunoprecipitation method; assay type: functional, cell-based

With `CC(C)OC(=O)c1c(NC(=S)Nc2ccc(F)c3ccccc23)sc2c1CCC2` the Activity (THP-1 [1]) was “Active”, the Activity (HCT-116) was 25.85% and the Activity [2] was “inactive”. For the same compound, the Activity (THP-1 [3]) was “inactive”, the Activity (THP-1 [4]) was “Active” and the Activity [5] was “Non-Toxic”. For the same compound, the Activity (Macrophage [6]) was “inactive”, the Activity [7] was “Active” and the “fold change (FC)” value [8] was 2. The Activity (Toll-like receptor 2 [9]) was “Active”, the fold change (FC) (Toll-like receptor 2 [10]) was 370 and the Activity (THP-1 [11]) was “Active”. For the same compound, the Activity (THP-1 [12]) was “Active”, the Activity (THP-1 [13]) was “inactive” and the Activity [14] was “inactive”. For the same compound, the Activity (CD4+ve Th) was “Active”, the Kd (Toll-like receptor 2 [15]) was 53 nM and the Activity (HEK-Blue hTLR2) was “Dose-Dependent Effect”. For the same compound, the Activity [16] was “inactive”, the Activity (THP-1 [17]) was “inactive” and the Activity [18] was “inactive”. For the same compound, the Activity (CD3-positive T cell) was “Active”, the Activity (THP-1 [19]) was “Active” and the Activity (THP-1 [20]) was “Active”. For the same compound, the Activity [21] was “Active”, the Activity (MCF7) was “inactive” and the Activity (THP-1 [22]) was “Active”. The Activity (THP-1 [23]) was “Active”, the Activity (RAW264.7) was “inactive” and the Activity (PBMC) was “Dose-Dependent Effect”. For the same compound, the “Ratio CC50/EC50” value [24] was >3200, the Activity [25] was “inactive” and the Activity [26] was “Non-Toxic”. For the same compound, the Activity (Toll-like receptor 2 [27]) was “Dose-Dependent Effect”, the Activity (Macrophage [28]) was “inactive” and the Activity (THP-1 [29]) was “inactive”.
